According to ChEMBL document CHEMBL1212896, “Discovery of novel cyanodihydropyridines as potent mineralocorticoid receptor antagonists” (J Med Chem, 2010):
Values after ≈ are worked out from the molar mass of the structure shown. Active and inactive are the calls of the source. The rule behind the calls is not given here.

What was measured:
[1] = test system: Rattus norvegicus; test: Antihypertensive activity in Dahl salt-sensitive rat model assessed as decrease of systolic blood pressure at 100 mg/kg administered with chow diet for 21 days; type: functional, organism-based; set-up: dose 100 mg/kg; conditions: Artery
[2] = test system: Rattus norvegicus; test: Antihypertensive activity in Dahl salt-sensitive rat model assessed as decrease of systolic blood pressure at 60 mg/kg, po bid for 21 days; type: functional, organism-based; set-up: dose 60 mg/kg; conditions: Artery
[3] = test system: Rattus norvegicus; test: Protection of renal injury in Dahl salt-sensitive rat model assessed as reduction of urinal albumin excretion at 60 mg/kg, po bid for 21 days; type: functional, organism-based; set-up: dose 60 mg/kg
[4] = target: T1, Glucocorticoid receptor (Homo sapiens, UniProt P04150); test: Antagonist activity at glucocorticoid receptor LBD expressed in human HUH7 cells coexpressing GAL4 by luciferase reporter gene assay; type: functional, cell-based, Huh-7
T1 sequence (P04150 whole entry): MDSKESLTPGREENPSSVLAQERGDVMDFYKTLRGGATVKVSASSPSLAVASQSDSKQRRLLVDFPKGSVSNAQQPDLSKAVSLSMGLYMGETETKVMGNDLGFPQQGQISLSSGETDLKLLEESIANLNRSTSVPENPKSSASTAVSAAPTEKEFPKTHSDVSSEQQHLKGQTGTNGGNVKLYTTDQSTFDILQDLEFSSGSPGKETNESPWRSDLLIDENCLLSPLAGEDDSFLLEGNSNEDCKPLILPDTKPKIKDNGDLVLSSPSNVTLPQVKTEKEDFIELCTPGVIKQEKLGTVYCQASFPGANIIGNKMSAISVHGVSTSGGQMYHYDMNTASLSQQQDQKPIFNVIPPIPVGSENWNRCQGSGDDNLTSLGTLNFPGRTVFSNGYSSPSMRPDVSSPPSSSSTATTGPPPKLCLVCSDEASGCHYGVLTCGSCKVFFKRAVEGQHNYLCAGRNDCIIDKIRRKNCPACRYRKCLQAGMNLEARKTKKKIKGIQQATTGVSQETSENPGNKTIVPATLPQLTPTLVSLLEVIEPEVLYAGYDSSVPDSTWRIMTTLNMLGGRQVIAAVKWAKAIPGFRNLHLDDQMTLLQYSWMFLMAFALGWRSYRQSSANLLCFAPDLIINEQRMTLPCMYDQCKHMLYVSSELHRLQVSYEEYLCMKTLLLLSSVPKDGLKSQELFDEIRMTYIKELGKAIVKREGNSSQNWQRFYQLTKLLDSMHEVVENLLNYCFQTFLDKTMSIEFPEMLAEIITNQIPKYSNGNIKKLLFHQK

[5] = target: T2, Progesterone receptor (Homo sapiens, UniProt P06401); test: Antagonist activity at progesterone receptor LBD expressed in human HUH7 cells coexpressing GAL4 by luciferase reporter gene assay; type: functional, cell-based, Huh-7
T2 sequence (P06401 whole entry): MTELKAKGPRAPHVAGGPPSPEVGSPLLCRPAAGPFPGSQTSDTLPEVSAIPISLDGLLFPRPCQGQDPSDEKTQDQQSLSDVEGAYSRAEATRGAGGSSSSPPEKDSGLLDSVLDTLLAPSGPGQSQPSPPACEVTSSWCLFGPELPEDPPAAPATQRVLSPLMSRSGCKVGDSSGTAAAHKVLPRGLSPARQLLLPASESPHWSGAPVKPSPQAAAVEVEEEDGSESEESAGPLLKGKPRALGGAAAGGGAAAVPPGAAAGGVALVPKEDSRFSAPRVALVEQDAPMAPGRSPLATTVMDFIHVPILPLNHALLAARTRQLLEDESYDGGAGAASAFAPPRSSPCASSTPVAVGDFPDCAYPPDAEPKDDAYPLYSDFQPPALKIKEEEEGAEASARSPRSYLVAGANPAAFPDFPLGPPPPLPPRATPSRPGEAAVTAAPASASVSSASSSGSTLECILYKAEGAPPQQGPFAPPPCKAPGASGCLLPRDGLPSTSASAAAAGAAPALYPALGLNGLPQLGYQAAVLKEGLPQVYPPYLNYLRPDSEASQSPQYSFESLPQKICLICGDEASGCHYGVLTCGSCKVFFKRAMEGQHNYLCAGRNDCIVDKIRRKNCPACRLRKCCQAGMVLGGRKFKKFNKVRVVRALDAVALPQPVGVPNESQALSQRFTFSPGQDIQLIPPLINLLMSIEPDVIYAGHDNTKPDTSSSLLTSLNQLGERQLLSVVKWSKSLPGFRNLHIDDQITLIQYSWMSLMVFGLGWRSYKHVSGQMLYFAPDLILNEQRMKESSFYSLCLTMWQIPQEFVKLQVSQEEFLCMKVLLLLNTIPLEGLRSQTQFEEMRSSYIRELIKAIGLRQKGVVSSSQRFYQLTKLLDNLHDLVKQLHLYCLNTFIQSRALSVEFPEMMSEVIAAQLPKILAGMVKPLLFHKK

[6] = test system: Liver microsomes; test: Metabolic stability in human liver microsomes assessed as compound remaining; type: ADME, Microsome
[7] = test system: Liver microsomes; test: Metabolic stability in rat liver microsomes assessed as compound remaining; type: ADME, Microsome
[8] = target: Cytochrome P450 3A4 (Homo sapiens, UniProt P08684); test: Inhibition of CYP3A4; type: ADME
[9] = target: Cytochrome P450 2C9 (Homo sapiens, UniProt P11712); test: Inhibition of CYP2C9; type: ADME
[10] = target: Cytochrome P450 2D6 (Homo sapiens, UniProt P10635); test: Inhibition of CYP2D6; type: ADME
[11] = Solubility of the compound; type: physicochemical
[12] = target: T3, Mineralocorticoid receptor (Homo sapiens, UniProt P08235)
T3 sequence (P08235 whole entry): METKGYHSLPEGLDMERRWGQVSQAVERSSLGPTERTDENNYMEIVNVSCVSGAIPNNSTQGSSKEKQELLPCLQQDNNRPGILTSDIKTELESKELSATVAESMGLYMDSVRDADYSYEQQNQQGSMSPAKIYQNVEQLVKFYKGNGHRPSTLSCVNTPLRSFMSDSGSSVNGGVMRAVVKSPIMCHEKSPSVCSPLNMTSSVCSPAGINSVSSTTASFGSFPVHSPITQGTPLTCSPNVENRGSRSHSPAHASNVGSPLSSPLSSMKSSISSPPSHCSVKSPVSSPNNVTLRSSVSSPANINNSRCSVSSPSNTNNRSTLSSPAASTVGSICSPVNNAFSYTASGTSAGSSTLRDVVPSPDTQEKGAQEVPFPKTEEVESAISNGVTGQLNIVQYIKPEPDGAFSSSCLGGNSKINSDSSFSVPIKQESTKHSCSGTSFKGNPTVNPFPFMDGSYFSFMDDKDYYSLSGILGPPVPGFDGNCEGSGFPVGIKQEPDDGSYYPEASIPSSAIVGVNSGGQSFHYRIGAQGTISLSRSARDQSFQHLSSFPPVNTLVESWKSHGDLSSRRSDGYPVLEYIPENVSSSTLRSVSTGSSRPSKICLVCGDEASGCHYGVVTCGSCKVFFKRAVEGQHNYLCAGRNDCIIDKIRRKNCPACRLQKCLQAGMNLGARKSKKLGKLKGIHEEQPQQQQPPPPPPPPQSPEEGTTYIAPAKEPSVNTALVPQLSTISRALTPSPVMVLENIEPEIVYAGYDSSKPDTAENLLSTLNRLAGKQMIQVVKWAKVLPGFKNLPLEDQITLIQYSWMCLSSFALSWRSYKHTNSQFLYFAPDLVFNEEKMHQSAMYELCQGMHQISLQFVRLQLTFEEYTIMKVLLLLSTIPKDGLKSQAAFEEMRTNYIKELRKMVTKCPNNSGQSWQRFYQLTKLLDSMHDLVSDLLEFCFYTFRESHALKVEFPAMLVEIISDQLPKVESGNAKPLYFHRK
Description: Antagonist activity at mineralocorticoid receptor LBD expressed in human HUH7 cells coexpressing GAL4 by luciferase reporter gene assay

[13] = target: T4, Androgen receptor (Homo sapiens, UniProt P10275); test: Antagonist activity at androgen receptor LBD expressed in human HUH7 cells coexpressing GAL4 by luciferase reporter gene assay; type: functional, cell-based, Huh-7
T4 sequence (P10275 whole entry): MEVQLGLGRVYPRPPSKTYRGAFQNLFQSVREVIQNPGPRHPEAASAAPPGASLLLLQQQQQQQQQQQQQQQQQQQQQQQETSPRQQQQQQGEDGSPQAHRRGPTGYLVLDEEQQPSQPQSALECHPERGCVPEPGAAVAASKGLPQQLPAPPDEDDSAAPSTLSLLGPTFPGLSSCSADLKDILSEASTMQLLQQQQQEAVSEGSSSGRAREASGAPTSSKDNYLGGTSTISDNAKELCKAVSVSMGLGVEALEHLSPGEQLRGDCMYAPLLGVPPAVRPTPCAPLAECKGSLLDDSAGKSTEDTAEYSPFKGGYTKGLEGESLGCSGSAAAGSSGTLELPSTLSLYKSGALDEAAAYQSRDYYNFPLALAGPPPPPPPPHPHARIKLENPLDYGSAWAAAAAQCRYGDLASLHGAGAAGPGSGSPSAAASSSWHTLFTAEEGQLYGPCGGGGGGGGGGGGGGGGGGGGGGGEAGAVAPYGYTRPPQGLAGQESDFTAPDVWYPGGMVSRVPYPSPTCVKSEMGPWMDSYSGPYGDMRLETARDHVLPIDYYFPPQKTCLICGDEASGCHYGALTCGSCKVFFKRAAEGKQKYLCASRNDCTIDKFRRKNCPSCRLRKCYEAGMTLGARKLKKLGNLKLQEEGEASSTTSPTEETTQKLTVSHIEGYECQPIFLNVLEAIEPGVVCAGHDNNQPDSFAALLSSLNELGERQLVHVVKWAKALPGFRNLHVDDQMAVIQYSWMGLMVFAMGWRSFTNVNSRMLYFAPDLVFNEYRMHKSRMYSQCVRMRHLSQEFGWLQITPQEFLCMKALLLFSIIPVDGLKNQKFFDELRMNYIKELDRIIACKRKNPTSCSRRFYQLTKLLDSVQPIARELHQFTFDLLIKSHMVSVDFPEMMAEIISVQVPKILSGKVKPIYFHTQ

[14] = Intrinsic clearance in rat liver microsomes; type: ADME, Microsome

Cytochrome P450 2D6, sequence (P10635 whole entry): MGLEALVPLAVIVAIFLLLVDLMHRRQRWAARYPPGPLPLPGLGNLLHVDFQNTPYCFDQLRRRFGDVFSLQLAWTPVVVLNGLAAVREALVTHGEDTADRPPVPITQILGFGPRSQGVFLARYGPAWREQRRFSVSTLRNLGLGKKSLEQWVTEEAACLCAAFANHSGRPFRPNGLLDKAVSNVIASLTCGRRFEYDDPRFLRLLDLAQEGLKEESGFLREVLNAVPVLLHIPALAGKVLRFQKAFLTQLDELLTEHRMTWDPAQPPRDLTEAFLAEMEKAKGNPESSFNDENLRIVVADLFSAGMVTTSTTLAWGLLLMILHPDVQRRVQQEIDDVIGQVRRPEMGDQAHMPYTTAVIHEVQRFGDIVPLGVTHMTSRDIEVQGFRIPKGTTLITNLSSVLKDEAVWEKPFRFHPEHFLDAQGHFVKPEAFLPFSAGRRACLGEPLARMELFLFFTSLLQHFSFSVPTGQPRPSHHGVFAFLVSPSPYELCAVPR
Cytochrome P450 3A4, sequence (P08684 whole entry): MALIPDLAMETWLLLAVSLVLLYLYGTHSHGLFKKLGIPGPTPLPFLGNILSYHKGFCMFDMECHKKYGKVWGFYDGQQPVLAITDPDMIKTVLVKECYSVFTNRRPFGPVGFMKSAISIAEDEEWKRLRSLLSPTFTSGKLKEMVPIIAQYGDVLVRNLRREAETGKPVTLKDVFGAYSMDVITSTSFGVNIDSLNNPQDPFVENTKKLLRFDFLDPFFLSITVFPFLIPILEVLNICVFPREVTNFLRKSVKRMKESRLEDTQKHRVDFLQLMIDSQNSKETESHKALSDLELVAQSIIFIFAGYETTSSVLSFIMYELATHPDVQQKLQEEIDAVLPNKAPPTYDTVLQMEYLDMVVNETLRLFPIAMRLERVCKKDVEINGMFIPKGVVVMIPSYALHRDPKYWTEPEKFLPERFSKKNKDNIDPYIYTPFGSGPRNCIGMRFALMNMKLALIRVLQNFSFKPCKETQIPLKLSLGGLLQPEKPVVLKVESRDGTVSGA
Cytochrome P450 2C9, sequence (P11712 whole entry): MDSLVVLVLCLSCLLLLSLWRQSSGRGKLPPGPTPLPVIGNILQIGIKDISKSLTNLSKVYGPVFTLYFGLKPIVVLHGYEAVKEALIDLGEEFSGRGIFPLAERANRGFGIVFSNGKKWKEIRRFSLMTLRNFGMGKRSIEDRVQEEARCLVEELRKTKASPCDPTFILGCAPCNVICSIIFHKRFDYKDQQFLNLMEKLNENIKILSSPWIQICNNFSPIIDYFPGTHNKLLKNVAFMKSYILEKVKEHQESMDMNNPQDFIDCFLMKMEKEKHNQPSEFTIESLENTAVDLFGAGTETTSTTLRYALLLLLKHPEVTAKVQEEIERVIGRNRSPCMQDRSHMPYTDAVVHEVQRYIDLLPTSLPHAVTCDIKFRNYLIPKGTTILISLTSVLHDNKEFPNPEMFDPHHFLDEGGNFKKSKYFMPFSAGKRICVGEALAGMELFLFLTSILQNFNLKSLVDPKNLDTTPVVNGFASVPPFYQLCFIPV

IC50 [13] | CLint scaled [14] | SMILES | Activity [1] | Activity [2] | Activity [3] | IC50 [4] | IC50 [5] | Stability [6] | Stability [7] | IC50 [8] | IC50 [9] | IC50 [10] | solubility [11] | IC50 [12]
– | – | COC(=O)[C@@H]1CC2=CC(=O)CC[C@]2(C)[C@@]23O[C@@H]2C[C@@]2(C)[C@@H](CC[C@@]24CCC(=O)O4)[C@H]13 | Active | Active | Active | – | – | – | – | – | – | – | – | –
– | – | COC(=O)C1=C(Cn2cccn2)NC(C)=C(C#N)C1c1ccc(F)cc1Cl (stereo unspecified) | – | – | – | 3300 nM | 5500 nM | 2% | 31% | 1100 nM | 600 nM | > 10000 nM | > 5 µM | 54 nM
300 nM | 8.71 mL/min/kg | COC(=O)C1=C(Cn2cnnn2)NC(C)=C(C#N)[C@H]1c1ccc(F)cc1Cl | – | – | – | 1000 nM | 7200 nM | – | – | > 10000 nM | > 10000 nM | > 10000 nM | 32 µM (≈ 12.4 µg/mL) | 52 nM
